# Patent US7855185B2, “MN gene and protein” (Institute of Virology of the Slovak Academy of Sciences, priority 2001, dated 2010)
# Target: MN/CA IX (Homo sapiens, UniProt Q16790)
# Experiment: Cell adhesion assay on immobilized purified MN/CA IX (Example 2)
# Assay type: cell-based
# Conditions: not given
# Method: The series of oligopeptides were tested by the cell adhesion assay procedure essentially as described above in Example 1. The synthetic oligopeptides were immobilized on hydrophobic plastic surfaces to see if they would mediate the attachment, spreading and growth of cells. Also investigated were whether the oligopeptides or antibodies inhibited attachment of cells (NIH3T3, HeLa and CGL1) to purified MN protein coated onto such plastic surfaces. The MN protein was affinity purified on agarose covalently linked to sulfonamide, as the MN protein encompasses a CA domain.
# Cell adhesion assay. The conditions of the assay are basically as described in Example 1. Briefly, 1 μg/ml of purified MN/CA IX in 50 mM mono/bicarbonate buffer, pH 9.2, was adsorbed in 30 μl drops on the bottom of bacteriological 5 cm Petri dishes for 1.5 hr. Then the drops were removed by aspiration and the dishes were 3× rinsed with PBS and blocked with 50% FCS in culture medium for 30 min. There were two variants of the test. In the first one, the whole bottom of the Petri dish was blocked with 50% FCS, and the dishes were seeded with 5 ml of cell suspension (10^5 cells/ml). After overnight incubation, the cultures were rinsed with PBS, fixed and stained. In the other variant, only the area of adsorbed MN/CA IX was blocked and on top of MN/CA IX dots were added 30 μl drops of cell suspension in growth medium, containing added oligopeptides (or control without peptides). After incubation, rinsing and fixation, the cultures were stained with 0.5% Trypan blue in 50 mM Tris buffer pH 8.5 for 1 h, rinsed with water and dried. Stained areas of attached cells were extracted with 10% acetic acid, the extracts transferred to 96-well plates and absorbance was measured at 630 nm on microplate reader.
row,Compound,activity of phage-display nonapeptides in cell adhesion inhibition
1,AGQTRSPLA [SEQ ID NO: 140],inactive
2,AITFNAQYA [SEQ ID NO: 138],highest activity
3,AKKMKRRKA [SEQ ID NO: 137],less active
4,ASASAPVSA [SEQ ID NO: 139],marginally positive only in ELISA

# Tested on: NIH3T3 cells freshly transformed with the [pGD.MN+MLV] complex
# Experiment: Morphologic transformation of NIH3T3 cells by [pGD.MN+MLV] complex in the presence of acetazolamide
# Conditions: 10^−5M, 4 days of incubation
row,Compound,difference between transformed cells growing in presence or absence of the drug
1,CC(=O)Nc1nnc(S(N)(=O)=O)s1 [acetazolamide],No difference

# Tested on: Rat2TK- cells and C33 human cervical carcinoma cells transfected with pMN-HSVtk
# Experiment: GVC sensitivity of pMN-HSVtk transfectants
# Assay type: cell-based
# Conditions: in vitro, even in low concentrations
# Method: A plasmid construct in which HSVtk was cloned downstream of the MN promoter region Bd3, containing both proximal and distant regulatory elements of MN, was prepared. That plasmid pMN-HSVtk was transfected to Rat2TK-cells and C33 human cervical carcinoma cells using calcium phosphate precipitation and lipofection, respectively. Transfectants were tested for expression of HSVtk and GVC sensitivity. Analysis of the transfectants has shown the remarkable cytotoxic in vitro effect of GVC even in low concentrations (up to 95% of cells killed).
row,Compound,cells killed
1,"Nc1nc(O)c2ncn(COC(CO)CO)c2n1 [GVC, ganciclovir]",up to 95%

# Tested on: MAb M75
# Experiment: Competition ELISA with M75 on adsorbed GST-MN
# Assay type: binding, mouse
# Conditions: not given
# Method: ELISA. Purified GST-MN [Zavada et al. (1993), supra] at concentration 10 ng/ml in carbonate buffer pH 9.2 was adsorbed for 3 h in Maxisorb strips (NUNC). After washing and blocking (1 h) with 0.05% Tween 20 in PBS, 50 μl/well of the antibody+antigen mixtures were added. […] These mixtures were adsorbed for 1.5 h, followed by washing with Tween-PBS. Bound antibody was detected by antimouse IgG conjugate with peroxidase (SwAM-Px, SEVAC, Prague), diluted 1:1000. In the color reaction OPD (o-phenylenediamine dihydrochloride, Sigma) 1 mg/ml in 0.1 M citrate buffer pH 5.0 was used. To this H2O2 was added to final concentration 0.03%. This system is balanced so as to allow assay for antigen competing for M75 as well as for peptides binding to the epitope of immobilized GST-MN.
# Identification of the epitope recognized by Mab M75. Preliminary mapping of M75 epitope employing partial sequences of extracellular parts of MN/CA9 cDNA expressed from bacterial vectors and tested on Western blots located it in PG region For exact mapping, our strategy was to synthesize partially overlapping oligopeptides of 15-25 aa covering the PG domain and test them in competition ELISA with M75. According to the results, this was followed by a series of 6-12 aa oligopeptides. A major part of the PG domain consists of a 6-fold tandem repeat of 6 aa (aa 61-96) [SEQ ID NO: 97]; 4 repeats are identical (GEEDLP) [SEQ ID NO: 98] and 2 contain 2 aa exchanged (SEEDSP [SEQ ID NO: 141] and REEDPP [SEQ ID NO: 142]).
Compound,serological activity in competition ELISA with M75,concentration causing 50% inhibition in competition ELISA [ng/mL],fold less active than SEQ ID NOS: 104 and 106 in competition ELISA [×]
ADLPGEEA [SEQ ID NO: 134],none of the following still shorter oligopeptides (6+2aa) competed,,
AEDLPGEA [SEQ ID NO: 133],none of the following still shorter oligopeptides (6+2aa) competed,,
AEEDLPGA [SEQ ID NO: 132],none of the following still shorter oligopeptides (6+2aa) competed,,
AGEEDLPA [SEQ ID NO: 131],none of the following still shorter oligopeptides (6+2aa) competed,,
ALPGEEDA [SEQ ID NO: 135],none of the following still shorter oligopeptides (6+2aa) competed,,
APGEEDLA [SEQ ID NO: 136],none of the following still shorter oligopeptides (6+2aa) competed,,
APGEEDLPA [SEQ ID NO: 125],minimum serologically active sequence,,
DLPGEEDLPGEE [SEQ ID NO: 122],serologically active,,
EDLPGEEDLP [SEQ ID NO: 121],serologically active,,
"EDPPGEEDLPGEEDLPGEEDLPEVC [SEQ ID NO: 106, aa 75-98 of the PG region, cysteine added onto the C-end]",,1,
EEDLPGEEDLPG [SEQ ID NO: 120],serologically active,,
"EVKPKSEEEGSLKLE [SEQ ID NO: 118, aa 97-111 of the PG region]",inactive,,
GEEDLPGEEDLP [SEQ ID NO: 119],serologically active,,
"GEEDLPSEEDSPREEDPPGEEDLPGEC [SEQ ID NO: 105, aa 61-85 of the PG region, cysteine added onto the C-end]",,,1000
"GGSSGEDDPLGEEDLPSEEDSPC [SEQ ID NO: 104, aa 51-72 of the PG region, cysteine added onto the C-end]",,1,
LPGEEDLPGEED [SEQ ID NO: 123],serologically active,,
PGEEDLPGEEDL [SEQ ID NO: 124],serologically active,,

# Same assay, conditions: 100 μg/ml
row,Compound,competition in ELISA for M75
1,ADLPGEEDA [SEQ ID NO. 129],negative
2,AEDLPGEEA [SEQ ID NO: 128],negative
3,AEEDLPGEA [SEQ ID NO: 127],negative
4,ALPGEEDLA [SEQ ID NO: 130],negative

# Same assay, conditions: peptides of 7+2 aa
row,Compound,activity of phage-display nonapeptides in competition ELISA
1,AGQTRSPLA [SEQ ID NO: 140],inactive
2,AITFNAQYA [SEQ ID NO: 138],highest activity
3,AKKMKRRKA [SEQ ID NO: 137],less active
4,ASASAPVSA [SEQ ID NO: 139],marginally positive
